Test results from patent US4599352A, “Antineoplastic platinum (IV) complexes and compositions” (priority 1984, dated 1986).

What was measured:
IP L1210 leukemia = test: Mouse optimal (highest tolerated) dose, IP L1210 leukemia, Days 1, 5 and 9 schedule (Table 7); assay type: in vivo
Excerpt: *IP L1210 leukemia, Days 1, 5 and 9 schedule. Highest tolerated dose in a
least 2 of 3 experiments (i.e,. animal weight difference (testcontrol)

IP L1210 = test: Activity against IP-implanted L1210 leukemia sensitive to cisplatin, 30 day test (Table 3); assay type: in vivo, Female CD2Fl mice
Procedure: (§1) Biological properties of the compounds of the present invention were determined following the protocol described in Cancer Chemotherapy Reports, Vol. 3, No. 3, 1972 which report is incorporated herein by reference.
(§2) Other known mechanisms of resistance for other classes of agents, such as gene amplification or target enzyme change or amplication, also need to be explored. The experiments summarized in Table 3 were conducted at the same time against both sublines using the same drug preparations. […] These experiments were repeated in a second laboratory as documented in Table 4. However, in these experiments the animals were held for 60 rather than 30 days to evaluate whether or not long-term survivors are produced after drug treatment in a more challenging setting.
This experiment (A8-00005 3LE31) was conducted at the Southern Research Institute, Birmingham, Ala. under the supervision of Dr. Daniel Griswold. The protocols were the same as those published previously (Geran et al., Cancer Chemotherapy Reports 3: No. 2, 1972 [Attachment 11]). 10^5 cells were implanted intraperitoneally in CD2Fl male mice on Day 0. Drug treatments were given intraperitoneally as single injections at the doses indicated on Days 1, 5 and 9 after tumor implantation. The diluent was saline except for NSC-271674 where 5% sodium bicarbonate was used. All drugs were prepared fresh on the day of injection, and all were administered in solution. Median survival times for both control and drug-treated mice were determined and expressed as a percentage (% T/C). Body weights were determined on Day 5 and expressed as a weight difference (body weight of the drug-treated animals minus that of the control animals in grams) (T-C). The diluent control animals lived a median of 8.4 days and gained 1.9 grams by Day 5 in this experiment. All animals, including Day 30 survivors, were used in the calculation of median survival times. The log10 change in tumor burden refers to the net log change in viable tumor cell population at the end of therapy (Rx) as compared to the start of therapy; e.g., a […] means that there was a […] and a 3 log change means there was a 1000-fold increase in tumor burden at the end of therapy. The tumor burden at the start of therapy was about 6.1×10^5 cells in this experiment.
These experiments (A8-00008 3LE31 and A8-00001 3DP31) were conducted concurrently at the Southern Research Institute, Birmingham, Ala. under the supervision of Dr. Daniel Griswold. See Table 4 for experimental details. The diluent control animals bearing L1210 leukemia lived a median of 8.6 days and gained 1.3 grams by Day 5. […] Female CD2Fl mice were used for these experiments.

IP L1210/Cisplatin [1] = test: Activity against IP-implanted L1210/Cisplatin leukemia resistant to cisplatin, 30 day test (Table 3); assay type: in vivo, Female CD2Fl mice
Procedure: as §1, §2
This experiment (A8-00005 3LE31) was conducted at the Southern Research Institute, Birmingham, Ala. under the supervision of Dr. Daniel Griswold. The protocols were the same as those published previously (Geran et al., Cancer Chemotherapy Reports 3: No. 2, 1972 [Attachment 11]). 10^5 cells were implanted intraperitoneally in CD2Fl male mice on Day 0. Drug treatments were given intraperitoneally as single injections at the doses indicated on Days 1, 5 and 9 after tumor implantation. The diluent was saline except for NSC-271674 where 5% sodium bicarbonate was used. All drugs were prepared fresh on the day of injection, and all were administered in solution. Median survival times for both control and drug-treated mice were determined and expressed as a percentage (% T/C). Body weights were determined on Day 5 and expressed as a weight difference (body weight of the drug-treated animals minus that of the control animals in grams) (T-C). The diluent control animals lived a median of 8.4 days and gained 1.9 grams by Day 5 in this experiment. All animals, including Day 30 survivors, were used in the calculation of median survival times. The log10 change in tumor burden refers to the net log change in viable tumor cell population at the end of therapy (Rx) as compared to the start of therapy; e.g., a […] means that there was a […] and a 3 log change means there was a 1000-fold increase in tumor burden at the end of therapy. The tumor burden at the start of therapy was about 6.1×10^5 cells in this experiment. […]

IP L1210/Cisplatin [2] = test: Activity against IP-implanted L1210/Cisplatin leukemia resistant to cisplatin, 60 day test (Table 4); assay type: in vivo, Female CD2Fl mice
Procedure: as §1
as §2, with “setting. […]” for “setting.”
These experiments (23-00081 3LE31 and 23-00003 3DP3l) were conducted concurrently at the Mason Research Institute, Worcester, MA under the supervision of Dr. William Cobb. See Table 4 for experimental details. The diluent control animals bearing L1210 leukemia lived a median of 8.3 days and gained 1.6 grams by Day 5. […] Female CD2Fl mice were used for these experiments.

## [Cl][Pt]1([Cl])([Cl])([Cl])[NH]C2CCCCC2[NH]1 (stereo not drawn) [trans (d, l), (d,l)-Tetrachloro-trans-1,2-cyclohexanediamine platinum (IV)]
IP L1210 leukemia
  Mouse Optimal Dose (highest tolerated dose in at least 2 of 3 experiments): 8 mg/kg
IP L1210; 1 mg/kg/dose
  30 Day Survivors/Total: 0/6
  Approx. Log10 Change in Tumor Burden at End of RX: ~2.8 log10
  Median % T/C: 125%
IP L1210; 2 mg/kg/dose
  30 Day Survivors/Total: 0/6
  Approx. Log10 Change in Tumor Burden at End of RX: ~2.4 log10
  Median % T/C: 151%
IP L1210; 4 mg/kg/dose
  30 Day Survivors/Total: 2/6
  Approx. Log10 Change in Tumor Burden at End of RX: ~-1.5 log10
  Median % T/C: 212%
IP L1210; 8 mg/kg/dose
  30 Day Survivors/Total: 3/6
  Approx. Log10 Change in Tumor Burden at End of RX: ~-5.9 log10
  Median % T/C: 348%
IP L1210; 16 mg/kg/dose
  30 Day Survivors/Total: 1/6
  Median % T/C: 143%
IP L1210/Cisplatin [1]; 1 mg/kg/dose
  30 Day Survivors/Total: 0/6
  Approx. Log10 Change in Tumor Burden at End of RX: ~2.8 log10
  Median % T/C: 115%
IP L1210/Cisplatin [1]; 2 mg/kg/dose
  30 Day Survivors/Total: 0/6
  Approx. Log10 Change in Tumor Burden at End of RX: ~2.8 log10
  Median % T/C: 118%
IP L1210/Cisplatin [1]; 4 mg/kg/dose
  30 Day Survivors/Total: 2/6
  Approx. Log10 Change in Tumor Burden at End of RX: ~-3.4 log10
  Median % T/C: 225%
IP L1210/Cisplatin [1]; 8 mg/kg/dose
  30 Day Survivors/Total: 4/6
  Approx. Log10 Change in Tumor Burden at End of RX: ~-5.9 log10
  Median % T/C: 322%
IP L1210/Cisplatin [1]; 16 mg/kg/dose
  30 Day Survivors/Total: 1/6
  Median % T/C: 110%
IP L1210/Cisplatin [2]; 1 mg/kg/dose
  60 Day Survivors/Total: 0/10
  Body Weight Difference: -0.6 Grams
  Median % T/C: 129%
IP L1210/Cisplatin [2]; 2 mg/kg/dose
  60 Day Survivors/Total: 1/10
  Body Weight Difference: -0.8 Grams
  Median % T/C: 139%
IP L1210/Cisplatin [2]; 4 mg/kg/dose
  60 Day Survivors/Total: 4/10
  Body Weight Difference: -1.2 Grams
  Median % T/C: 451%
IP L1210/Cisplatin [2]; 8 mg/kg/dose
  60 Day Survivors/Total: 0/10
  Body Weight Difference: -4.0 Grams
  Median % T/C: 236%
IP L1210/Cisplatin [2]; 16 mg/kg/dose
  60 Day Survivors/Total: 0/10
  Body Weight Difference: -6.3 Grams
  Median % T/C: Toxic
